Test results reported in patent US20260207765A1, “COVALENTLY-MODIFIED STEROID ACID-PEPTIDES HAVING ENHANCED STABILITY AND/OR BIOLOGICAL ACTIVITY” (priority 2022, published 2026).
Positions of bridges follow the written chain, without caps; N, C: chain ends. Residues, ends and D or L forms follow the SMILES beside them. Chains are numbered I, II in the order given. No end group written: not given here. *: point of attachment. Chenodeoxycholyl = C[C@H](CCC(=O)*)[C@H]1CC[C@H]2[C@@H]3[C@H](O)C[C@@H]4C[C@H](O)CC[C@]4(C)[C@H]3CC[C@]12C; Cholyl = C[C@H](CCC(=O)*)[C@H]1CC[C@H]2[C@@H]3[C@H](O)C[C@@H]4C[C@H](O)CC[C@]4(C)[C@H]3C[C@H](O)[C@]12C

Assays:
[1] = tested on: JIMT-1 breast cancer cells; assay: Cytotoxicity of steroid acid-peptide conjugates in JIMT-1 cells; type: cell-based; details: JIMT-1, FIGS. 21A and 21B
Procedure: (§1) Apoptosis analysis was conducted by flow-cytometry. Briefly, target cells were first treated then washed. Treated cells were then re-suspended in Annexin-V staining buffer prior to staining with Annexin-V and propidium iodine (PI). Fifteen minutes later, cells were washed prior to analysis using BD FACS™ Diva on CANTOII™.
50 mg of CDCA-C-SV40 monomers (or other steroid acid-peptide monomers) were resuspended in 200-500 μL of DMSO. 10 eq of N,N-Diisopropylethylamine (DIPEA) was added to the mixture and incubated in a thermomixer at 37° C. with agitation (1000 rpm) overnight, enabling dimerization of the monomers via their N-terminal cysteine thiol groups to produce (CDCA-C-SV40)2 or other dimers. The samples were then analyzed by UPLC-MS to evaluate dimer formation efficiency. Cell toxicity was evaluated via a Cell Toxicity assay (PrestoBlue™).

EL4 lymphoma = assay: EL4 tumor model in mice; type: in vivo, mouse; details: highest tested dose (190 μM), every 48 h, total of 5 injections
Procedure: Female C57BL/6 mice (n=10/group) received a SC injection of 5×10^5 EL4 cells at Day 0. […] For all depletion studies, antibodies were injected via the intraperitoneal route at days 0, 3 and 6 at a concentration of 200 μg/injection. Tumor size and animal survival for all of the above listed in vivo studies was followed thereafter using a digital caliber until reaching endpoints (ulceration or a tumor volume ≥1000 mm^3).

EL4 lymphoma cells = assay: Apoptosis analysis / kill curve by flow cytometry (Annexin-V, PI); type: cell-based, mouse
Procedure: as §1

[2] = tested on: bone marrow-derived dendritic cells (DCs); assay: Apoptosis analysis by flow cytometry on bone marrow-derived dendritic cells; type: cell-based, mouse; details: 190 μM
Procedure: Mouse bone marrow derived DCs (BMDCs) were generated by flushing the whole marrow from mouse femurs using RPMI™ 1640 supplemented with 10% fetal bovine serum (FBS), 50 U/mL Penicillin-Streptomycin, 2 mM L-glutamine, 10 mM HEPES, 1% MEM Non-essential Amino Acids, 1 mM Sodium Pyruvate, 0.5 mM β-mercaptoethanol. Following red blood cell lysis, cells were then cultured in media supplemented with 50 ng/mL murine recombinant GM-CSF. The media was changed on days 2, 4, 6 and 8. On day 9, the media was replaced to include recombinant murine GM-CSF and LPS from Escherichia coli 0111 (1 ng/mL) to stimulate DC maturation. Mature DCs were assessed by flow cytometry for their surface expression of CD3, CD19, NK1.1, CD11c, CD80, CD86, and I-A^b.
as §1

[3] = tested on: mesenchymal stromal cells (MSCs); assay: Apoptosis analysis by flow cytometry on MSCs; type: cell-based; details: 190 μM
Procedure: as §1

macrophages = assay: Apoptosis analysis by flow cytometry on macrophages; type: cell-based; details: 190 μM
Procedure: as §1

[4] = tested on: EL4, B16, E0771, CT-26, 4T1, MBA-MD-468, H460 and A549 cancer cells; assay: Annexin-V cytotoxicity screen of bile acid-SV40 conjugates on eight tumor cell lines; type: cell-based; details: 190 μM, all eight tumor cell lines
Procedure: Annexin-V staining percentage after treatment with different bile acid-SV40 conjugates (190 μM) is shown relative to live cancer cells (i.e., PBS treated cancer cells) by flow cytometry. Cancer cell lines tested were EL4 lymphoma, B16 melanoma, E0771 breast cancer, CT-26 colon carcinoma, 4T1 breast cancer, MBA-MD-468 triple-negative breast cancer, human H460 lung cancer, and human A549 lung cancer. […] SV40 alone was also tested as a negative control.
as §1

[5] = tested on: wild-type MSC and B3Z reporter system; assay: Antigen cross-presentation, wild-type MSC and B3Z reporter system; details: 50 μM, sample stored 3 months at −80° C. (thawed)

## CC(C)[C@H](NC(=O)[C@H](CCCCN)NC(=O)CNC(=O)[C@H](Cc1ccc(O)cc1)NC(=O)CNC(=O)[C@H](CO)NC(=O)[C@H](CSSC[C@H](NC(=O)CC[C@@H](C)[C@H]1CC[C@H]2[C@@H]3[C@H](O)C[C@@H]4C[C@H](O)CC[C@]4(C)[C@H]3CC[C@]12C)C(=O)N[C@@H](CO)C(=O)NCC(=O)N[C@@H](Cc1ccc(O)cc1)C(=O)NCC(=O)N[C@@H](CCCCN)C(=O)N[C@H](C(=O)N[C@@H](CO)C(=O)N[C@@H](CCCNC(=N)N)C(=O)N[C@@H](CCCNC(=N)N)C(=O)NCC(=O)NCC(=O)N[C@@H](Cc1c[nH]cn1)C(=O)N[C@@H](CCC(N)=O)C(=O)N[C@@H](CC(N)=O)C(=O)N[C@@H](CO)C(=O)N[C@@H](Cc1ccc(O)cc1)C(=O)N[C@@H](CCCCN)C(=O)N1CCC[C@H]1C(=O)N[C@@H](Cc1ccc(O)cc1)C(=O)O)C(C)C)NC(=O)CC[C@@H](C)[C@H]1CC[C@H]2[C@@H]3[C@H](O)C[C@@H]4C[C@H](O)CC[C@]4(C)[C@H]3CC[C@]12C)C(=O)N[C@@H](CO)C(=O)N[C@@H](CCCNC(=N)N)C(=O)N[C@@H](CCCNC(=N)N)C(=O)NCC(=O)NCC(=O)N[C@@H](Cc1c[nH]cn1)C(=O)N[C@@H](CCC(N)=O)C(=O)N[C@@H](CC(N)=O)C(=O)N[C@@H](CO)C(=O)N[C@@H](Cc1ccc(O)cc1)C(=O)N[C@@H](CCCCN)C(=O)N1CCC[C@H]1C(=O)N[C@@H](Cc1ccc(O)cc1)C(=O)O [(CDCA-C-hnRNP D NLS)2] (I: Chenodeoxycholyl-CSGYGKVSRRGGHQNSYKPY-OH / II: Chenodeoxycholyl-CSGYGKVSRRGGHQNSYKPY-OH; disulfide I:1-II:1)
[1]
  cytotoxicity of dimerized version versus monomer: enhancement of cytotoxicity

## CSCC[C@H](NC(=O)[C@H](CS)NC(=O)CC[C@@H](C)[C@H]1CC[C@H]2[C@@H]3[C@H](O)C[C@@H]4C[C@H](O)CC[C@]4(C)[C@H]3C[C@H](O)[C@]12C)C(=O)NCC(=O)N[C@@H](CCCNC(=N)N)C(=O)N[C@H](C(=O)N[C@@H](CCCNC(=N)N)C(=O)N[C@H](C(=O)N[C@@H](CCCCN)C(=O)N[C@H](C(=O)N[C@H](C(=O)N[C@@H](CCCCN)C(=O)N[C@@H](CCCCN)C(=O)N[C@@H](C)C(=O)N[C@@H](C)C(=O)NCC(=O)NCC(=O)O)C(C)C)[C@@H](C)O)[C@@H](C)O)C(C)C [CA-C-NLS1 RPS17] (Cholyl-CMGRVRTKTVKKAAGG-OH; N-terminus and C-terminus assumed)
EL4 lymphoma
  survival at day 40: 20%
  tumor growth: significantly delayed tumor growth

## CC[C@H](C)[C@H](NC(=O)[C@H](CCCNC(=N)N)NC(=O)[C@H](CCCCN)NC(=O)[C@H](CCSC)NC(=O)[C@H](CC(C)C)NC(=O)[C@H](Cc1c[nH]cn1)NC(=O)[C@@H](NC(=O)[C@@H](NC(=O)[C@H](Cc1ccc(O)cc1)NC(=O)CNC(=O)[C@H](C)NC(=O)[C@@H](NC(=O)[C@H](CCCCN)NC(=O)[C@H](CC(N)=O)NC(=O)[C@H](CCCNC(=N)N)NC(=O)[C@H](CC(C)C)NC(=O)[C@H](CCCCN)NC(=O)[C@H](CCCCN)NC(=O)[C@H](CO)NC(=O)[C@H](CS)NC(=O)CC[C@@H](C)[C@H]1CC[C@H]2[C@@H]3[C@H](O)C[C@@H]4C[C@H](O)CC[C@]4(C)[C@H]3C[C@H](O)[C@]12C)[C@@H](C)CC)C(C)C)[C@@H](C)O)C(=O)O [CA-C-NLS3 RPS17] (Cholyl-CSKKLRNKIAGYVTHLMKRI-OH; N-terminus and C-terminus assumed)
EL4 lymphoma
  survival at day 40: 20%
  tumor growth: significantly delayed tumor growth

## CC(C)[C@H](NC(=O)[C@H](CCCCN)NC(=O)[C@H](CCCNC(=N)N)NC(=O)[C@H](CCCCN)NC(=O)[C@H](CCCCN)NC(=O)[C@H](CCCCN)NC(=O)[C@@H]1CCCN1C(=O)CNC(=O)[C@H](Cc1ccc(O)cc1)NC(=O)CNC(=O)[C@H](CS)NC(=O)CC[C@@H](C)[C@H]1CC[C@H]2[C@@H]3[C@H](O)C[C@@H]4C[C@H](O)CC[C@]4(C)[C@H]3C[C@H](O)[C@]12C)C(=O)NCC(=O)NCC(=O)O [CA-C-SV40] (Cholyl-CGYGPKKKRKVGG-OH)
EL4 lymphoma cells; 190 μM, EL4, FIG. 6
  cytotoxicity of Cholic acid-NLS conjugates: notably higher
EL4 lymphoma cells; EL4 lymphoma cells, flow cytometry, read-out: EC50 (cell death / kill curve)
  EC50: 95.9 µM
[2]
  apoptosis in normal or healthy cells: induce apoptosis
[3]
  apoptosis in normal or healthy cells: induce apoptosis
EL4 lymphoma
  survival at day 40: 60%
macrophages
  apoptosis in normal or healthy cells: induce apoptosis

## CC(C)[C@H](NC(=O)[C@H](CCCCN)NC(=O)[C@H](CCCNC(=N)N)NC(=O)[C@H](CCCCN)NC(=O)[C@H](CCCCN)NC(=O)[C@H](CCCCN)NC(=O)[C@@H]1CCCN1C(=O)CNC(=O)[C@H](Cc1ccc(O)cc1)NC(=O)CNC(=O)[C@H](CS)NC(=O)CC[C@@H](C)[C@H]1CC[C@H]2[C@@H]3[C@H](O)C[C@@H]4C[C@H](O)CC[C@]4(C)[C@H]3CC[C@]12C)C(=O)NCC(=O)NCC(=O)O [CDCA-C-SV40] (Chenodeoxycholyl-CGYGPKKKRKVGG-OH)
[4]
  cytotoxic activity: 100%

## CC(=O)N[C@@H](CS)C(=O)O [NAC, N-acetylcysteine, reference compound]
EL4 lymphoma cells; CA-C-SV40 at EC50 dose
  rescue from CA-C-SV40-triggered cell death: completely blocked apoptosis

## CA-C-hnRNPA1: cholic acid conjugated to C-hnRNPA1 M9 NLS peptide (SEQ ID NO: 4) (Cholyl-CSNFGPMKGGNFGGRSSGPY)
[5]
  antigen presentation: reduced antigen presentation activity

## SV40 NLS: nuclear localization signal from SV40 large T-antigen (PKKKRKV; SEQ ID NO: 2), tested alone as negative control [reference compound]
EL4 lymphoma cells
  cytotoxic activity: did not exhibit any cytotoxic activity
